Experimental data reported in US12297163B2, “Glycerol derivative, preparation method therefor, and immunomodulator comprising same as effective ingredient” (ENZYCHEM LIFESCIENCES CORPORATION, priority 2018, dated 2025).

Key:
[1] = tested on: IL-6; experiment: LPS-induced IL-6 secretion in RAW264.7 cells (ELISA); format: cell-based, mouse; conditions: for IL-6 concentration (average ± deviation): then LPS 1 μg/ml, 24 hours
Protocol: In DMEM (Hyclone, Thermo Scientific) medium to which 10% Fetal Bovine Serum was added, RAW264.7 cells, a mouse macrophage family, were suspended at a concentration of 1×10^5 cells/ml, and the cells were maintained in a 5% CO2 humidified incubator at 37° C., and cultured. The cultured RAW264.7 cells were inoculated into a 48 well plate by 5×10^4 cells/ml and stabilized for 15 hours. Then, the culture solution was treated with a glycerol derivative compounds of the type shown in Table 2 and 3 below for 1 hour and then was treated with 1 μg/ml of Lipopolysaccaride (LPS) of a cell stimulator, and subsequent further incubation was conducted for 24 hours. Thereafter 0.5 ml of the culture supernatant was collected for each well and centrifuged (at 3000 rpm, 5 minutes) to recover the supernatant. The IL-6 level in the recovered supernatant was measured according to the manual provided by the Mouse IL-6 ELISA set (BD Biosciences). The day before ELISA was carried out, the IL-6 capture antibody was diluted in phosphate buffered saline, coated on a microwell, and then stored at 4° C. overnight. Each well was washed three times with a washing buffer solution and then blocked with 2% Bovine Serum Albumin (BSA) for 1 hour at room temperature. After washing with buffer solution three times, 100 μl of sample was dispensed into each well and left at room temperature for 2 hours. Detection antibody which was washed 3 times with washing buffer solution and diluted was dispensed into each well and allowed to react at room temperature for 1 hour and left at room temperature for 1 hour. Thereafter, the secondary HRP conjugated antibody was reacted at room temperature for 30 minutes, washed three times with a washing buffer solution, and treated with 50 μl of stop solution for each well, and then the optical density was measured at 450 nm with an ELISA microplate leader.

[2] = tested on: STAT3; experiment: IL-6-induced STAT3 activity, SEAP expression in HEK-Blue IL-6 cells; format: cell-based; conditions: for STAT3 activity SEAP expression(%) (average ± deviation): negative control = 100
Protocol: Two experiments were conducted as a method of confirming STAT3 activity. First, HEK-Blue™ IL-6 cells were used to confirm the degree of activity by STAT3-induced SEAP (secreted embryonic alkaline phosphatase) expression. Second, this is a method to check the degree of STAT3 activity by injecting the pGL4.47 [luc2P/SIE/Hygro] vector containing the sis-inducible element that binds to STAT3 into RAW264.7 cells. Table 4 below confirmed the STAT3 activity inhibitory ability of the derivative compound of the present invention using the first method.
In DMEM (Hyclone, Thermo Scientific) medium to which 10% Fetal Bovine Serum was added, HEK-Blue™ IL-6 cells were cultured at a concentration of 1×10^5 cells/ml, and the cells were maintained in a 5% CO2 humidified incubator at 37° C., and cultured. The cultured HEK-Blue™ IL-6 cells were inoculated by 1×10^5 cells/ml, and treat with a glycerol derivative compounds of the type shown in Table 3 below in the culture solution for 1 hour, and then IL-6 (5 ng/ml) was further incubated for 24 hours for STAT3 activity. Thereafter, the culture supernatant was collected for each well and centrifuged (at 3000 rpm, 5 minutes) to recover the supernatant. The SEAP expression level in the recovered supernatant was mixed with Quanti blue reagent and the supernatant at a ratio of 1:10 and left at 37° C. for about 30 minutes. Then, the SEAP concentration was confirmed at 650 nm wavelength using a spectrophotometer, and the results thereof are shown in Table 4 below.

[3] = tested on: STAT3; experiment: STAT3 activity, pGL4.47 [luc2P/SIE/Hygro] luciferase reporter in RAW264.7 cells; format: cell-based, mouse
Protocol: Thereafter, the culture supernatant was removed for each well, and the remaining cells were lysed with a cell lysis buffer, and then cell lysate was recovered. 90 μl of luciferase reagent was mixed with 10 μl of the recovered cell lysate, and the degree of fluorescence was confirmed using a luminometer.

[4] = tested on: CXCL8 (IL-8); experiment: CXCL8 (IL-8) expression in Gemcitabine-stimulated THP-1 cells (ELISA); format: cell-based, human
Protocol: Thereafter 1.5 ml of the culture supernatant was collected for each well and centrifuged (at 3000 rpm, 5 minutes) to recover the supernatant.

[5] = tested on: HL-60 cells; experiment: Migration of HL-60 cell line using Transwell; format: cell-based, human
Protocol: Then, the culture solution was treated with a glycerol derivative compounds of the type shown in Table 7 below for 1 hour and then was treated with Gemcitabine (2 μg/ml) of a cell stimulator, and subsequent further incubation was conducted for 24 hours. Thereafter 1.5 ml of the culture supernatant was collected for each well and centrifuged (at 3000 rpm, 5 minutes) to recover the supernatant. […] The day before Transmigration assay was carried out, a 1× Lamin I solution was treated in the upper Invasion Chamber and coated. […] Thereafter the upper chamber was removed, and the cells were attached to the bottom of the lower chamber by a centrifuge, and then the supernatant was removed. Cell dissociation/Calcein-AM solution was added and reacted for 1 hour. Then, the value obtained using a fluorescence spectroscopy was calculated by converting the number of cells.

[6] = tested on: STAT6; experiment: IL-4-induced STAT6 activity, pGL4-STAT6 luciferase reporter in A549 cells; format: cell-based
Protocol: In DMEM (Dulbecco Modified Eagle Medium, Hyclone, Thermo Scientific) medium to which 10% Fetal Bovine Serum was added, A549 cells were subcultured at a concentration of 1×10^5 cells/ml, and the cells were maintained in a 5% CO2 humidified incubator at 37° C., and cultured. The cultured A549 cells were inoculated into a 48 well plate by 1×10^5 cells/ml and stabilized for 18 hours. Thereafter, pGL4-STAT6 reporter vector containing a STAT6 binding promoter portion was mixed with Attractene to induce complex formation at room temperature for 15 minutes. This complex was treated with the cells and then further incubated for 24 hours. Thereafter, the culture solution was treated with a glycerol derivative compounds of the type shown in Table 8 and Table 9 below for 1 hour in the culture solution, and then IL-4 (2 ng/ml or 10 ng/ml) was further incubated for 20 hours for STAT6 activity. Thereafter, the culture supernatant was removed for each well, and the remaining cells were lysed with a cell lysis buffer, and then cell lysate was recovered. 90 μl of luciferase reagent was mixed with 10 μl of the recovered cell lysate, and the degree of fluorescence was confirmed using a luminometer.

[7] = tested on: IL-4; experiment: PKC activator-induced IL-4 secretion in EL-4 cells (ELISA); format: cell-based, mouse; conditions: Table 11, sample 100 μg/ml for 2 hours, then PKC activator, 18 hours
Protocol: Thereafter 0.5 ml of the culture supernatant was collected for each well and centrifuged (at 3000 rpm, 5 minutes) to recover the supernatant. […] Thereafter, the secondary HRP conjugated antibody was reacted at room temperature for 30 minutes, washed three times with a washing buffer solution, and treated with 50 μl of stop solution for each well, and then the optical density was measured at 450 nm with an ELISA microplate leader.

Molecule: CCCCC/C=C\C/C=C\CCCCCCCC(=O)OC(COC(C)=O)COC(=O)CCCCCCCCCCCCCCC (stereo not drawn) [EC-18, 1-palmitoyl-2-linoleoyl-3-acetylglycerol]
- decrease of IL-6 expression/secretion compared to the LPS-treated group ([1]; LPS-stimulated): about 30%
- IL-6 concentration (average ± deviation) ([1]; Table 2, sample 100 μg/ml for 1 hour): 0.194 ± 0.011 ng/mL
- IL-6 concentration (average ± deviation) ([1]; Table 3, sample 100 μg/ml for 1 hour): 1.159 ± 0.036 ng/mL
- decrease of STAT3 activity compared to the IL-6-treated group [2]: about 25%
- STAT3 activity SEAP expression(%) (average ± deviation) ([2]; sample 100 μg/ml for 1 hour, then IL-6 5 ng/ml, 24 hours): 173.0 ± 7.9%
- decrease of STAT3 activity ([3]; LPS-treated): about 50%
- STAT3 activity_Luciferase activity (average ± deviation) ([3]; sample 100 μg/ml for 1 hour, then LPS 1 μg/ml, 18 hours, negative control = 100.00): 393.64 ± 46.12
- reduction of CXCL8 expression [4]: about 20%
- reduction of HL-60 cell migration, result in words ([5]; Transwell, comparison with negative control group or EC-18 (PLAG)): reduced to a degree similar to that of the negative control group
- reduction of STAT6 activity ([6]; IL-4-treated): about 50%
- STAT6 activity_Luciferase activity (average ± deviation) ([6]; Table 9, sample 100 μg/ml for 1 hour, then IL-4 10 ng/ml, 20 hours): 1281.5 ± 26.1
- IL-4 concentration (average ± deviation) [7]: 189.8 ± 38.5 pg/µL

Molecule: Nc1ccn([C@@H]2O[C@H](CO)[C@@H](O)C2(F)F)c(=O)n1 [Gemcitabine]
- increase of neutrophil cell migration compared to the negative control group ([5]; Gemcitabine-treated THP-1 cells): increased by about twice

Molecule: IL-6: IL-6 cytokine used to induce STAT3 activity
- STAT3 activity SEAP expression(%) (average ± deviation) ([2]; IL-6 5 ng/ml alone): 228.8 ± 17.0%

B1: IL-4: IL-4 used to induce STAT6 activity in A549 cells (protein, UniProt P05112 25-153, looked up)
Interleukin-4: HKCDITLQEIIKTLNSLTEQKTLCTELTVTDIFAASKNTTEKETFCRAATVLRQFYSHHEKDTRCLGATAQQFHRHKQLIRFLKRLDRNLWGLAGLNSCPVKEANQSTLENFLERLKTIMREKYSKCSS
- STAT6 activity_Luciferase activity (average ± deviation) ([6]; Table 9, IL-4 alone, concentration printed 10): 2134.5 ± 17.6
